Laboratory results as given in patent publication US20210101928A1 (Sage Therapeutics, Inc., priority 2017, published 2021).
Where two headings read alike, the source gives them in different places.

Biological target: GABAA receptor ([35S]-TBPS binding, rat brain cortical membranes)
Assay: Steroid inhibition of [35S]-TBPS binding
Conditions: in the presence of 5 mM GABA
Procedure, shortened: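 Sprague-Dawley rat cortical P2 membranes incubated 90 min at room temperature with 3 nM [35S]-TBPS, […] GABA and test compound (0.5% DMSO) in 200 mM NaCl/50 mM Na-K phosphate pH 7.4. Nonspecific binding with […] TBPS; filtration and scintillation counting; IC50 and Imax from nonlinear fits.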

Cc1nnnn1CC(=O)[C@H]1CC[C@H]2[C@@H]3CC[C@]4(C)C[C@](C)(O)CC[C@]4(C)[C@H]3CC[C@]12C [I-A8, 1-((3R,5R,8S,9S,10R,13S,14S,17S)-3-hydroxy-3,5,10,13-tetramethylhexadecahydro-1H-cyclopenta[a]phenanthren-17-yl)-2-(5-methyl-1H-tetrazol-1-yl)ethan-1-one]
IC50 (Table I-1, 3 nM [35S]-TBPS, read-out: TBPS binding IC50): 100 to 1000 nM

CC[C@]12CC[C@@](C)(O)C[C@@H]1CC[C@H]1[C@@H]3CC[C@H](C(=O)CN4CCN(S(C)(=O)=O)CC4)[C@@]3(C)CC[C@@H]12 [II-A10, 1-((3R,5S,8S,9S,10S,13S,14S,17S)-10-ethyl-3-hydroxy-3,13-dimethylhexadecahydro-1H-cyclopenta [a]phenanthren-17-yl)-2-(4-(methylsulfonyl)piperazin-1-yl)ethan-1-one]
IC50 (Table II-2, 3 nM [35S]-TBPS, read-out: TBPS IC50): 10 to 100 nM

CC[C@]12CC[C@H]3[C@@H](CC[C@H]4C[C@@](O)(COC)CC[C@@H]43)[C@@H]1CC[C@@H]2C(=O)Cn1nnc(C)n1 [III-A22, 1-((3R,5S,8R,9R,10S,13S,14S,17S)-13-ethyl-3-hydroxy-3-(methoxymethyl)hexadecahydro-1H-cyclopenta [a]phenanthren-17-yl)-2-(5-methyl-2H-tetrazol-2-yl)ethan-1-one]
IC50 (Table III-1 (biological data), 3 nM [35S]-TBPS, read-out: TBPS IC50): < 10 nM
